Where two headings read alike, the source gives them in different places.
Target: full length NS3/4a (Hepatitis C virus genotype 1b (isolate BK) (HCV), UniProt P26663)
Assay: NS3 Protease Assay (Example A), FRET-based
Assay type: biochemical
Procedure, shortened: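 Initial rates were taken from fluorescence progress curves over 30 min at room temperature, and IC50 was fitted across replicates. In-house full-length NS3/4a cleaved a FRET peptide (5-FAMsp/QXL520) from the NS4A/B site. Medium: 50 mM Tris pH8, 20 mM DTT, 1% CHAPS, 10% glycerol, 5% DMSO.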

[1] = HCV NS3 protease assay, full length NS3/4a, read-out: Assay A IC50 (μM) average
[2] = read-out: IC50 against the protease activity of the full length NS3/4a

Chain of full length NS3/4a (P26663 1027-1657): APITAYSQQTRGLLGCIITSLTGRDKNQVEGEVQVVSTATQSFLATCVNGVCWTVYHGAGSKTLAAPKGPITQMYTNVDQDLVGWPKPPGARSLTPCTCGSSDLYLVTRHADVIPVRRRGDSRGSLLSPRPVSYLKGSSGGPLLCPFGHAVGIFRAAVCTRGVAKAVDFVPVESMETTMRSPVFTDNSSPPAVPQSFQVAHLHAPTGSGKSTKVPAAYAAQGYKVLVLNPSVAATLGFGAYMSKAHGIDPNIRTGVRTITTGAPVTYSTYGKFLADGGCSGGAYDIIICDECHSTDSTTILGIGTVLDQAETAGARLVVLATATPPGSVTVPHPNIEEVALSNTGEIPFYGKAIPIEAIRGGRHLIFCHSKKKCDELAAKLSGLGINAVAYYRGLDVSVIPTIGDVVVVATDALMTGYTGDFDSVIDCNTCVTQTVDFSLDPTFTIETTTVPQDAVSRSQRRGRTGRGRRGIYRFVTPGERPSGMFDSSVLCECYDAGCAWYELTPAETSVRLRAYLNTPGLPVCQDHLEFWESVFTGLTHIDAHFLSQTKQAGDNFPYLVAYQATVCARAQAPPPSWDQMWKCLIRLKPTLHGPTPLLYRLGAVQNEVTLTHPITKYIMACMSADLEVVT

| SMILES | IC50 [1] [µM] | IC50 [2] [µM] | inhibition at 1 µM (@ 1 uM) [%] |
| --- | --- | --- | --- |
| CC[C@@H](N[C@@H](C)CC(N)=O)c1ccc(OC)c(C(=O)c2ccc(F)cc2)c1F [Example 200, (3S)-3-{[(1R)-1-{2-fluoro-3-[(4-fluorophenyl)carbonyl]-4-methoxyphenyl}propyl]amino} butanamide] | 0.078 | < 1 | – |
| COc1ccc([C@H](N)C2CC2)c(F)c1C(=O)c1cccc(F)c1 [Example 201, (R)-cyclopropyl({2-fluoro-3-[(3-fluorophenyl)carbonyl]-4-methoxyphenyl})methanamine] | 3 | 1 to 5 | – |
| C[C@H](CC(N)=O)N[C@@H](c1ccc(Cl)c(C(=O)c2ccc(N)c(Cl)c2)c1F)C1CC1 [Example 202, (3R)-3-{[(R)-{3-[(4-amino-3-chlorophenyl)carbonyl]-4-chloro-2-fluorophenyl}(cyclopropyl)methyl]amino}butanamide] | 0.31 | – | – |
| Cc1cc(C(=O)c2c(Cl)ccc([C@H](N[C@H](C)CC(N)=O)C3CC3)c2F)ccc1N [Example 203, (3R)-3-{[(R)-{3-[(4-amino-3-methylphenyl)carbonyl]-4-chloro-2-fluorophenyl}(cyclopropyl)methyl]amino}butanamide] | 0.27 | – | – |
| CC[C@@H](N)c1ccc(Cl)c(C(=O)c2cccc(O)c2)c1F [Example 204, 3-({3-[(1R)-1-aminopropyl]-6-chloro-2-fluorophenyl}-carbonyl)phenol] | 0.17 | – | – |
| CC[C@@H](N[C@@H](C)CC(N)=O)c1ccc(Cl)c(C(=O)c2ccnc(N)c2)c1F [Example 205, (3S)-3-{[(1R)-1-{3-[(2-aminopyridin-4-yl)carbonyl]-4-chloro-2-fluorophenyl}propyl]amino} butanamide] | 0.19 | – | – |
| CC[C@@H](N[C@H](C)CC(N)=O)c1ccc(Cl)c(C(=O)c2ccnc(N)c2)c1F [Example 206, (3R)-3-{[(1R)-1-{3-[(2-aminopyridin-4-yl)carbonyl]-4-chloro-2-fluorophenyl}propyl]amino}butanamide] | 1.2 | 1 to 5 | – |
| CC[C@@H](N[C@@H](C)CC(N)=O)c1ccc(Cl)c(C(=O)c2ccc(NC)nc2)c1F [Example 207, (3S)-3-{[(1R)-1-(4-chloro-2-fluoro-3-{[6-(methylamino)pyridin-3-yl]carbonyl}phenyl)propyl]amino}butanamide] | 0.37 | < 1 | – |
| CC[C@@H](N[C@H](C)CC(N)=O)c1ccc(Cl)c(C(=O)c2ccc(NC)nc2)c1F [Example 208, (3R)-3-{[(1R)-1-(4-chloro-2-fluoro-3-{[6-(methylamino)pyridin-3-yl]carbonyl}phenyl)propyl]amino}butanamide] | 3.1 | 1 to 5 | – |
| COc1ccc([C@H](N[C@H](C)CC(N)=O)C2CC2)c(F)c1C(=O)c1ccc(F)cc1 [Example 209, (3R)-3-{[(R)-cyclopropyl({2-fluoro-3-[(4-fluorophenyl)carbonyl]-4-methoxyphenyl})methyl]amino}butanamide] | 2.7 | 1 to 5 | – |
| COc1ccc([C@H](N[C@@H](C)CC(N)=O)C2CC2)c(F)c1C(=O)c1ccc(F)cc1 [Example 210, (3S)-3-{[(R)-cyclopropyl({2-fluoro-3-[(4-fluorophenyl)carbonyl]-4-methoxyphenyl})methyl]amino} butanamide] | 0.098 | < 1 | – |
| CC[C@@H](N[C@H](C)CC(N)=O)c1ccc(OC)c(C(=O)c2cccc(F)c2)c1F [Example 211, (3R)-3-{[(1R)-1-{2-fluoro-3-[(3-fluorophenyl)carbonyl]-4-methoxyphenyl}propyl]amino}butanamide] | – | 1 to 5 | 47 |
| CC[C@@H](N[C@@H](C)CC(N)=O)c1ccc(OC)c(C(=O)c2cccc(F)c2)c1F [Example 212, (3S)-3-{[(1R)-1-{2-fluoro-3-[(3-fluorophenyl)carbonyl]-4-methoxyphenyl}propyl]amino}butanamide] | 0.094 | – | – |

— patent publication US9145354B2, “Pharmaceutical compounds” (priority 2011, dated 2015)
